# Data: patent US20230124862A1, “BISMUTH THIOL COMPOUNDS AND COMPOSITIONS AND METHODS OF TREATING MICROBIAL CO-INFECTIONS” (Microbion Corporation, priority 2020, published 2023)
# Several values for one entry are separate records, joined by “and”; a condition that tells them apart may be missing. Equal values may be shown once.
# How the values were obtained:
# [1] = test system: P. aeruginosa; test: Checkerboard FIC/FICI assay; assay type: cell-based, Pseudomonas aeruginosa
# [2] = test system: Burkholderia cepacia complex; test: Checkerboard FIC/FICI assay; assay type: cell-based, Burkholderia spp.
# [3] = test system: Candida krusei; test: Antifungal broth microdilution (Example 13); assay type: cell-based; conditions: for MIC2: 50% inhibition; for MIC0: complete inhibition
# [4] = test system: fungal pathogens; test: Antifungal activity, NIH/NIAID sponsored study; assay type: cell-based; conditions: for Antifungal activity, MIC 50%: 50% endpoint; for Antifungal activity, MIC 100%: 100% endpoint
# [5] = test system: Haemophilus influenzae; test: Broth microdilution MIC, Haemophilus influenzae clinical isolates; assay type: cell-based
# [6] = test system: P. aeruginosa; test: Broth microdilution MIC (Example 10); assay type: cell-based, Pseudomonas aeruginosa; conditions: initial MIC testing
# [7] = P. aeruginosa 6977, Aztreonam in combination with BisEDT, by checkerboard
# [8] = B. cepacia 546, Aztreonam in combination with BisEDT, by checkerboard
# [9] = C. krusei ATCC 14243, Susceptible
# [10] = C. krusei ATCC 96685, Susceptible
# [11] = C. krusei MMX 7125, Susceptible
# [12] = C. krusei MMX 7128, Susceptible
# [13] = C. krusei MMX 7141, Susceptible
# [14] = C. krusei MMX 7155, Susceptible
# [15] = C. krusei MMX 7563, Susceptible
# [16] = C. krusei MMX 9878, MICA-I, VORI-I
compound,measurement,setting,value
C[C@H]1[C@H](NC(=O)/C(=N\OC(C)(C)C(=O)O)c2csc(N)n2)C(=O)N1S(=O)(=O)O [Aztreonam],FICB,[1]; [7],1
same,MICB,[1]; [7],64 µg/mL
same,FICB,"[2]; B. cenocepacia 548, FIC of Aztreonam (Drug B) in combination with BisEDT",1
same,MICB,"[2]; B. cenocepacia 548, MIC of Aztreonam (Drug B) in combination with BisEDT",64 µg/mL
same,FICB,"[2]; B. cenocepacia 813, FIC of Aztreonam (Drug B) in combination with BisEDT",1
same,MICB,"[2]; B. cenocepacia 813, MIC of Aztreonam (Drug B) in combination with BisEDT",32 µg/mL
same,FICB,[2]; [8],1
same,MICB,[2]; [8],32 µg/mL
same,FICB,"[2]; B. cepacia 1793, FIC of Aztreonam (Drug B) in combination with BisEDT",1
same,MICB,"[2]; B. cepacia 1793, MIC of Aztreonam (Drug B) in combination with BisEDT",128 µg/mL
same,MIC,"[2]; B. multivorans 1795, Aztreonam alone, panel with BisEDT, read-out: Drug B MIC",16 µg/mL
same,FICB,"[2]; B. multivorans 1795, FIC of Aztreonam (Drug B) in combination with BisEDT",1 and 2
same,MICB,"[2]; B. multivorans 1795, MIC of Aztreonam (Drug B) in combination with BisEDT",16 µg/mL and 32 µg/mL
C1C[S][Bi]([S]CC[S][Bi]2[S]CC[S]2)[S]1 [BisEBT],MIC2,"[3]; C. krusei ATCC 6258, MICA-I",0.5 µg/mL
same,MIC0,"[3]; C. krusei ATCC 6258, MICA-I",1 µg/mL
same,MIC2,[3]; [9],0.5 µg/mL
same,MIC0,[3]; [9],1 µg/mL
same,MIC2,[3]; [10],0.25 µg/mL
same,MIC0,[3]; [10],0.5 µg/mL
same,MIC2,[3]; [11],0.5 µg/mL
same,MIC0,[3]; [11],1 µg/mL
same,MIC2,[3]; [12],0.5 µg/mL
same,MIC0,[3]; [12],1 µg/mL
same,MIC2,[3]; [13],0.5 µg/mL
same,MIC0,[3]; [13],1 µg/mL
same,MIC2,"[3]; C. krusei MMX 7153, MICA-R",0.5 µg/mL
same,MIC0,"[3]; C. krusei MMX 7153, MICA-R",1 µg/mL
same,MIC2,[3]; [14],0.5 µg/mL
same,MIC0,[3]; [14],1 µg/mL
same,MIC2,[3]; [15],0.5 µg/mL
same,MIC0,[3]; [15],1 µg/mL
same,MIC2,[3]; [16],0.5 µg/mL
same,MIC0,[3]; [16],1 µg/mL
C1C[S][Bi]([S]CC[S][Bi]2[S]CC[S]2)[S]1 [BisEQT],"Antifungal activity, MIC 50%",[4]; A. fumigatus AF1,8 µg/mL
same,"Antifungal activity, MIC 100%",[4]; A. fumigatus AF1,16 µg/mL
same,"Antifungal activity, MIC 50%",[4]; A. fumigatus AF2,4 µg/mL
same,"Antifungal activity, MIC 100%",[4]; A. fumigatus AF2,16 µg/mL
same,"Antifungal activity, MIC 50%",[4]; A. fumigatus AF3,4 µg/mL
same,"Antifungal activity, MIC 100%",[4]; A. fumigatus AF3,16 µg/mL
same,"Antifungal activity, MIC 50%",[4]; C. albicans CA1,4 µg/mL
same,"Antifungal activity, MIC 100%",[4]; C. albicans CA1,8 µg/mL
same,"Antifungal activity, MIC 50%",[4]; C. albicans CA2,2 µg/mL
same,"Antifungal activity, MIC 100%",[4]; C. albicans CA2,8 µg/mL
same,"Antifungal activity, MIC 50%",[4]; C. albicans CA3,4 µg/mL
same,"Antifungal activity, MIC 100%",[4]; C. albicans CA3,16 µg/mL
same,"Antifungal activity, MIC 50%",[4]; C. auris Cau1,4 µg/mL
same,"Antifungal activity, MIC 100%",[4]; C. auris Cau1,16 µg/mL
same,"Antifungal activity, MIC 50%",[4]; C. auris Cau2,2 µg/mL
same,"Antifungal activity, MIC 100%",[4]; C. auris Cau2,8 µg/mL
same,"Antifungal activity, MIC 50%",[4]; C. auris Cau3,4 µg/mL
same,"Antifungal activity, MIC 100%",[4]; C. auris Cau3,8 µg/mL
same,"Antifungal activity, MIC 50%",[4]; C. krusei ATCC6258,1 µg/mL
same,"Antifungal activity, MIC 100%",[4]; C. krusei ATCC6258,4 µg/mL
same,"Antifungal activity, MIC 50%",[4]; C. neoformans CN1,2 µg/mL
same,"Antifungal activity, MIC 100%",[4]; C. neoformans CN1,8 µg/mL
same,"Antifungal activity, MIC 50%",[4]; C. neoformans CN2,4 µg/mL
same,"Antifungal activity, MIC 100%",[4]; C. neoformans CN2,8 µg/mL
same,"Antifungal activity, MIC 50%",[4]; C. neoformans CN3,4 µg/mL
same,"Antifungal activity, MIC 100%",[4]; C. neoformans CN3,16 µg/mL
same,"Antifungal activity, MIC 50%",[4]; C. parapsilosis ATCC22019,1 µg/mL
same,"Antifungal activity, MIC 100%",[4]; C. parapsilosis ATCC22019,4 µg/mL
same,"Antifungal activity, MIC 50%",[4]; P. variotii CLSI QC,4 µg/mL
same,"Antifungal activity, MIC 100%",[4]; P. variotii CLSI QC,16 µg/mL
same,"Antifungal activity, MIC 50%",[4]; R. arrhizus RA1,8 µg/mL
same,"Antifungal activity, MIC 100%",[4]; R. arrhizus RA1,16 µg/mL
same,"Antifungal activity, MIC 50%",[4]; R. arrhizus RA2,4 µg/mL
same,"Antifungal activity, MIC 100%",[4]; R. arrhizus RA2,8 µg/mL
same,"Antifungal activity, MIC 50%",[4]; R. arrhizus RA3,4 µg/mL
same,"Antifungal activity, MIC 100%",[4]; R. arrhizus RA3,8 µg/mL
CO/N=C(\C(=O)N[C@@H]1C(=O)N2C(C(=O)O)=C(COC(N)=O)CS[C@H]12)c1ccco1 [CFA],MIC,"[5]; H. influenzae MMX 0797, BLNAR",4 µg/mL
same,MIC,[5]; H. influenzae MMX 1224 (ATCC 49247),4 µg/mL
same,MIC,[5]; H. influenzae MMX 1302,2 µg/mL
same,MIC,[5]; H. influenzae MMX 1304,64 µg/mL
same,MIC,[5]; H. influenzae MMX 1740,8 µg/mL
same,MIC,[5]; H. influenzae MMX 1741,4 µg/mL
same,MIC,"[5]; H. influenzae MMX 2795, BLNAR",1 µg/mL
same,MIC,"[5]; H. influenzae MMX 2796, BLNAR",4 µg/mL
same,MIC,"[5]; H. influenzae MMX 2798, BLNAR",4 µg/mL
same,MIC,"[5]; H. influenzae MMX 2799, BLNAR",8 µg/mL
same,MIC,[5]; H. influenzae MMX 5458,16 µg/mL
same,MIC,[5]; H. influenzae MMX 5461,8 µg/mL
same,MIC,[5]; H. influenzae MMX 5469,4 µg/mL
same,MIC,[5]; H. influenzae MMX 5494,0.5 µg/mL
same,MIC,[5]; H. influenzae MMX 5495,2 µg/mL
same,MIC,[5]; H. influenzae MMX 5499,1 µg/mL
O=C(O)c1cn(C2CC2)c2cc(N3CCNCC3)c(F)cc2c1=O [CIP],MIC,"[6]; P. aeruginosa isolate 1553 (TOB-R, AMK-R, CIP-R)",4 µg/mL
same,MIC,"[6]; P. aeruginosa isolate 7745 (MEM-R, CIP-R, AZT-R)",4 µg/mL
same,MIC,"[6]; P. aeruginosa isolate 7762 (MEM-I, CIP-I)",7 µg/mL
same,MIC,"[6]; P. aeruginosa isolate 8798 (MEM-R, TOB-R, AMK-R, CIP-R, AZT-R, COL-R)",4 µg/mL
same,MIC,"[1]; isolate 103 (ATCC 25922), during FIC testing, each agent tested alone for QC, one replicate",1 µg/mL
